Measured values from article PMC8672735, “Computational and experimental investigation of the effect of cation structure on the solubility of anionic flow battery active-materials” (Chemical Science, 2021).
Where two headings read alike, the source gives them in different places.

What was measured:
[1] = in DMSO and MeCN at 0.01 M, 0.05 M, 0.1 M, 0.2 M, and 0.5 M; 25 °C
Experimental: The viscosity measurements were collected using the Cannon Instruments Semi-Micro Viscometer. Concentrations of 0.01 M– 0.55 M were used when collecting the viscosity data at ambient temperature (25 °C). The U-tube style viscometer allowed for the collection of kinematic viscosity in centiStokes (cSt) which was then converted to dynamic viscosity in centiPoise (cP) using the electrolyte density.

[2] = Experimental solubility of [Nxxxx]y[VBH] active materials (maximum concentration by UV-Vis spectroscopy); assay type: physicochemical; conditions: anhydrous, organic solvent or mixture, read-out: Experimental solubility (maximum concentration of VBH in the electrolyte)
Excerpt: To investigate the solubilities of VBH-based active materials, we synthesized the alkylammonium [VBH] compounds in their reduced (+4) and oxidized (+5) states ([Nxxxx]2[V(+4)BH] and [Nxxxx][V(+5)BH], where x = 1 (methyl), 2 (ethyl), 3 (n-propyl), 4 (n-butyl)) and measured their solubilities in tetrahydrofuran (THF), acetonitrile (MeCN), dimethyl sulfoxide (DMSO), and propylene carbonate (PC). […] This led us to explicitly explore the interplay between competing trends in solvation energy and lattice enthalpy, which was implied by our previous work,[5] using a combined computational and synthetic strategy.
UV-Vis spectra were collected using the Evolution 220 UV-visible spectrophotometer with a quartz cuvette of 1 cm path length. The molar extinction coefficients for oxidized and reduced species in all solvents except for DMSO were used as determined in our previous study.[5] Molar extinction coefficients for oxidized species in DMSO were determined from a calibration curve. Infrared spectra were collected on a Thermo Scientific Nicolet iS5 equipped with iD7ATR module and a diamond crystal. ^1H- and ^13C-NMRs were performed on Bruker AVANCE III HD 400 MHz High-Performance Digital NMR spectrometer operating at 400 MHz for ^1H NMR and 101 MHz for ^13C NMR. Data acquisition was performed on IconNMR 5.0.3, and spectra were processed in TopSpin 3.5 and Mnova. High-Resolution Mass Spectrometry (HRMS) was performed on a Waters ACQUITY UPLC Xevo QTOF high resolution mass spectrometer using electrospray ionization. X-ray crystallographic experiments were performed on a Bruker D8 Venture X-instrument, using Mo Kα radiation at 200 K. Data were corrected for absorption using SADABS. The structures were solved by direct methods. All non-hydrogen atoms were refined anisotropically by full matrix least-squares on F^2 and all hydrogen atoms except those on water were placed in calculated positions with appropriate riding parameters. Further refinement and molecular graphics were obtained using Bruker Suite of structural programs,[55] OLEX2,[56] and Mercury.[57]
Hydroxylamine hydrochloride (Alfa Aesar), sodium hydroxide (Acros organics), chloroacetic acid (BTC), zinc acetate dihydrate (Acros Organics), calcium chloride (VWR), tetramethylammonium fluoride tetrahydrate (Matrix Scientific), tetraethylammonium fluoride (BTC), triethylamine (Acros Organics), n-butylbromide (Alfa Aesar), n-propylbromide (BTC), ferrocenium hexafluorophosphate (Sigma Aldrich), and vanadyl (iv) acetylacetonate (BTC) were purchased from commercial sources and used as received. Information on the characterization of new materials and those that were reported previously, and were used for solubility studies herein, are provided below. Solvent used in solubility measurement were of anhydrous grade and purchased from Sigma Aldrich.

[3] = acetonitrile (MeCN), MeCN (ϵ = 37), +4 state, [Nxxxx]2[VBH]
[4] = acetonitrile (MeCN), MeCN (ϵ = 37), +5 state, [Nxxxx][VBH]
[5] = dimethyl sulfoxide (DMSO), DMSO (ϵ = 47), +4 state, [Nxxxx]2[VBH]
[6] = dimethyl sulfoxide (DMSO), DMSO (ϵ = 47), +5 state, [Nxxxx][VBH]
[7] = propylene carbonate (PC), PC (ϵ = 66), +4 state, [Nxxxx]2[VBH]
[8] = propylene carbonate (PC), PC (ϵ = 66), +5 state, [Nxxxx][VBH]

solubility [2, 3] | solubility [2, 4] | solubility [2, 5] | solubility [2, 6] | solubility [2, 7] | solubility [2, 8] | SMILES | viscosity [1]
 |  |  |  |  |  | CCCC[N+](CCCC)(CCCC)CCCC [[N4444]2[VBH]] | generally increases with solution concentration
24 mM | 8 mM | 246 mM | 252 mM | 108 mM | 40 mM | CCC[N+](C)(C)C [compound 1113] | 
76 mM | 7 mM | 624 mM | 225 mM | 377 mM | 33 mM | CCCC[N+](C)(C)C [compound 1114] | 

SMILES | solubility [2, 3] | solubility [2, 4] | solubility [2, 5] | solubility [2, 6] | solubility [2, 7] | solubility [2, 8] | viscosity [1]
CC[N+](CC)(CC)CC [compound 2222] |  | 64 mM |  | 804 mM |  | 215 mM | 
